Laboratory results from patent US20140303092A1 (CHIMERIX, INC., priority 2011, published 2014).

Assay: Study HDP-CDV-201: safety and tolerability (adverse events, laboratory abnormalities, discontinuations)
Type: in vivo, human (adult allogeneic HSCT recipients)
Experimental: Clinical Studies of HDP-CDV were performed and described in detail in the following Examples. For example, HDP-CDV-201 is a placebo-controlled, dose-escalating trial in HSCT CMV (R+) recipients, evaluating the ability of HDP-CDV to prevent or control CMV infection was carried out. Five cohorts were established in which participants or subjects received either placebo or the HDP-CDV orally, in doses ranging from 40 mg weekly (QW) to 200 mg twice weekly (BIW). Subjects who were post-HSCT were enrolled at the time of engraftment and randomized to HDP-CDV or placebo (3 to 1 ratio) and received blinded therapy until approximately 100 day post-transplantation. HDP-CDV doses were 40 mg QW, 100 mg QW, 200 mg QW, 200 mg BIW and 100 mg BIW. Escalation to the next dose was decided by the data monitoring committee after review of the safety data from the previous Cohort. Subjects who developed CMV disease or CMV infection requiring pre-emptive therapy with local standard of care were discontinued from blinded therapy and followed for 4 weeks. Subjects who completed treatment with blinded therapy were followed for 8 weeks post-therapy.
Data from Study HDP-CDV-201 also provided characterization of the safety and tolerability profile of HDP-CDV when administered for the prevention or control of CMV infection in high risk (R^+) post-HSCT adult subjects.
The Safety population (SAFETY) included all randomized subjects who took at least one dose of study treatment. This population was used to summarize safety outcomes based on the treatment actually received, in cases where a subject was treated contrary to the randomization schedule.
The safety and tolerability profile of HDP-CDV, including subject demographics and Baseline characteristics; the AE profile; and laboratory abnormalities of interest were analyzed in the cohorts followed in this investigation.
Subjects completing the treatment period received a full course of study medication; those completing the entire study attended visits through 8 weeks of follow up. Subjects who discontinued treatment may have done so for protocol specified reasons (e.g. development of clinically significant CMV infection requiring preemptive treatment with excluded anti-CMV medications) or for other reasons (e.g., withdrawal, adverse events, loss to follow-up). The disposition of subjects in Study HDP-CDV-201 during the double-blind, placebo-controlled treatment period (through Week 11) is listed by dosing Cohort in TABLE 23.
Adverse events were examined by severity to ensure that all safety signals were identified in this study population. Because of the frequency of events in HSCT recipients, particular attention was given to evaluation of Grade 3 […], 4 (severe), and 5 (fatal) adverse events.
Only those preferred terms for which at least one Grade 3 or higher event was experienced in any treatment group are listed. Cytomegalovirus-related AEs are excluded from this analysis.
HDP-CDV is a lipid conjugate of CDV. Because CDV is known to have adverse effects on renal function and bone marrow, decreased GFR and persistent neutropenia were identified as AEs of special interest. Key renal and hematological (TABLE 30) laboratory parameters were measured and listed below by Study HDP-CDV-201 treatment groups. TABLE 30 includes abnormal levels of serum creatinine, neutrophils, platelets, WBCs, and hemoglobin and includes data at Screening and during the treatment period.
A common metric for unit based dosing of medications is by weight (mg/kg). When the distribution of weights was examined for all subjects participating in the study, the median was 78 kg and the lower 25th percentile weight was approximately 65 kg, which translates to a cut-off of ˜3 mg/kg for a 200 mg total weekly dose. Based upon this approach, a cut-off of 3 mg/kg was used to assess the frequency of diarrhea and associated GI AEs reported for the subjects in Cohorts 3 or 4a (TABLE 40).

[1] = Cohort 3, 200 mg QW, through Week 11

Structure (SMILES): CCCCCCCCCCCCCCCCOCCCOP(=O)(O)COC(CO)Cn1ccc(N)nc1=O (stereo not drawn) [HDP-CDV]
- TEAE Vomiting Overall Frequency, subjects (Cohort 3, 200 mg QW): 6 (15.4%)
- Total Bilirubin (Screening) >1-[…] ULN, subjects (Cohort 3, 200 mg QW): 0
- Total Bilirubin (Screening) >1.5-3 × ULN, subjects (Cohort 3, 200 mg QW): 0
- Total Bilirubin (Screening) >3-10 × ULN, subjects (Cohort 3, 200 mg QW): 0
- Total Bilirubin (Screening) >10 × ULN, subjects (Cohort 3, 200 mg QW): 0
- Total Bilirubin (any time during therapy) >1-[…] ULN, subjects (Cohort 3, 200 mg QW): 1 (2.6%)
- Total Bilirubin (any time during therapy) >1.5-3 × ULN, subjects (Cohort 3, 200 mg QW): 3 (7.9%)
- Total Bilirubin (any time during therapy) >3-10 × ULN, subjects (Cohort 3, 200 mg QW): 0
- Total Bilirubin (any time during therapy) >10 × ULN, subjects (Cohort 3, 200 mg QW): 0
- Abdominal pain leading to study drug withdrawal (Cohort 3, 200 mg QW, N = 39): 0%
- All AEs leading to withdrawal (Cohort 3, 200 mg QW, N = 39): 15 (38.5%)
- Diarrhoea leading to study drug withdrawal (Cohort 3, 200 mg QW, N = 39): 1 (2.6%)
- Dyspepsia leading to study drug withdrawal (Cohort 3, 200 mg QW, N = 39): 2 (5.1%)
- Nausea leading to study drug withdrawal (Cohort 3, 200 mg QW, N = 39): 0%
- TEAE ALT increased (Cohort 3, 200 mg QW, N = 39): 2 (5.1%) n (%)
- TEAE AST increased (Cohort 3, 200 mg QW, N = 39): 1 (2.6%) n (%)
- TEAE Abdominal pain (Cohort 3, 200 mg QW, N = 39): 5 (12.8%) n (%)
- TEAE Abdominal pain, Upper (Cohort 3, 200 mg QW, N = 39): 1 (2.6%) n (%)
- TEAE Acute GVHD (Cohort 3, 200 mg QW, N = 39): 13 (33.3%) n (%)
- TEAE Acute Myeloid Leukemia recurrent (Cohort 3, 200 mg QW, N = 39): 0 n (%)
- TEAE Acute Renal Failure (Cohort 3, 200 mg QW, N = 39): 0 n (%)
- TEAE Anxiety (Cohort 3, 200 mg QW, N = 39): 3 (7.7%) n (%)
- TEAE Arthralgias (Cohort 3, 200 mg QW, N = 39): 1 (2.6%) n (%)
- TEAE Back Pain (Cohort 3, 200 mg QW, N = 39): 2 (5.1%) n (%)
- TEAE Blood lactate dehydrogenase increased (Cohort 3, 200 mg QW, N = 39): 0 n (%)
- TEAE Creatinine increased (Cohort 3, 200 mg QW, N = 39): 3 (7.7%) n (%)
- TEAE Cytomegalovirus viremia (Cohort 3, 200 mg QW, N = 39): 7 (17.9%) n (%)
- TEAE Decreased appetite (Cohort 3, 200 mg QW, N = 39): 3 (7.7%) n (%)
- TEAE Diarrhoea (Cohort 3, 200 mg QW, N = 39): 13 (33.3%) n (%)
- TEAE Dysgeusia (Cohort 3, 200 mg QW, N = 39): 2 (5.1%) n (%)
- TEAE Fatigue (Cohort 3, 200 mg QW, N = 39): 5 (12.8%) n (%)
- TEAE GI Reflux Disease (Cohort 3, 200 mg QW, N = 39): 2 (5.1%) n (%)
- TEAE Gamma-glutamyltransferase increased (Cohort 3, 200 mg QW, N = 39): 0 n (%)
- TEAE Generalized oedema (Cohort 3, 200 mg QW, N = 39): 0 n (%)
- TEAE Hyperbilirubinaemia (Cohort 3, 200 mg QW, N = 39): 3 (7.7%) n (%)
- TEAE Hyperglycaemia (Cohort 3, 200 mg QW, N = 39): 1 (2.6%) n (%)
- TEAE Hyperkalemia (Cohort 3, 200 mg QW, N = 39): 1 (2.6%) n (%)
- TEAE Hypocalcaemia (Cohort 3, 200 mg QW, N = 39): 0 n (%)
- TEAE Hypokalaemia (Cohort 3, 200 mg QW, N = 39): 5 (12.8%) n (%)
- TEAE Hyponatraemia (Cohort 3, 200 mg QW, N = 39): 7 (17.9%) n (%)
- TEAE Increased leukocytosis (Cohort 3, 200 mg QW, N = 39): 2 (5.1%) n (%)
- TEAE Insomnia (Cohort 3, 200 mg QW, N = 39): 5 (12.8%) n (%)
- TEAE Liver function test abnormal (Cohort 3, 200 mg QW, N = 39): 2 (5.1%) n (%)
- TEAE Malnutrition (Cohort 3, 200 mg QW, N = 39): 1 (2.6%) n (%)
- TEAE Nausea (Cohort 3, 200 mg QW, N = 39): 11 (28.2%) n (%)
- TEAE Neutropenia (Cohort 3, 200 mg QW, N = 39): 4 (10.3%) n (%)
- TEAE Oedema peripheral (Cohort 3, 200 mg QW, N = 39): 3 (7.7%) n (%)
- TEAE Oral Candidiasis (Cohort 3, 200 mg QW, N = 39): 2 (5.1%) n (%)
- TEAE Pneumonia (Cohort 3, 200 mg QW, N = 39): 0 n (%)
- TEAE Pyrexia (Cohort 3, 200 mg QW, N = 39): 7 (17.9%) n (%)
- TEAE Recurrent flatulence (Cohort 3, 200 mg QW, N = 39): 1 (2.6%) n (%)
- TEAE Renal Failure (Cohort 3, 200 mg QW, N = 39): 0 n (%)
- TEAE Staphylococcal Bacteremia (Cohort 3, 200 mg QW, N = 39): 1 (2.6%) n (%)
- TEAE Thrombocytopenia (Cohort 3, 200 mg QW, N = 39): 0 n (%)
- TEAE Tremor (Cohort 3, 200 mg QW, N = 39): 2 (5.1%) n (%)
- TEAE Vomiting (Cohort 3, 200 mg QW, N = 39): 6 (15.4%) n (%)
- Vomiting leading to study drug withdrawal (Cohort 3, 200 mg QW, N = 39): 0%
- All AEs, Grade 5 (deaths) (Cohort 3, 200 mg QW, N = 39, entire study duration): 3 (7.7%)
- Subjects completed treatment [1]: 18 (46.2%) n (%)
- Subjects who permanently discontinued treatment [1]: 21 (53.8%) n (%)
- TEAE Abdominal pain Grade 2, subjects (Cohort 3, 200 QW >3 mg/kg): 0
- TEAE Abdominal pain Grade 3, subjects (Cohort 3, 200 QW >3 mg/kg): 1 (7.1%)
- TEAE Abdominal pain Grade 4, subjects (Cohort 3, 200 QW >3 mg/kg): 0
- TEAE Abdominal pain Grade 5, subjects (Cohort 3, 200 QW >3 mg/kg): 0
- TEAE Abdominal pain Overall Frequency, subjects (Cohort 3, 200 QW >3 mg/kg): 2 (14.3%)
- TEAE Diarrhea Grade 2, subjects (Cohort 3, 200 QW >3 mg/kg): 4 (28.6%)
- TEAE Diarrhea Grade 3, subjects (Cohort 3, 200 QW >3 mg/kg): 1 (7.1%)
- TEAE Diarrhea Grade 4, subjects (Cohort 3, 200 QW >3 mg/kg): 0
- TEAE Diarrhea Grade 5, subjects (Cohort 3, 200 QW >3 mg/kg): 0
- TEAE Diarrhea Overall Frequency, subjects (Cohort 3, 200 QW >3 mg/kg): 8 (57.1%)
- TEAE Hypokalaemia Grade 2, subjects (Cohort 3, 200 QW >3 mg/kg): 1 (7.1%)
- TEAE Hypokalaemia Grade 3, subjects (Cohort 3, 200 QW >3 mg/kg): 0
- TEAE Hypokalaemia Grade 4, subjects (Cohort 3, 200 QW >3 mg/kg): 0
- TEAE Hypokalaemia Grade 5, subjects (Cohort 3, 200 QW >3 mg/kg): 0
- TEAE Hypokalaemia, subjects (Cohort 3, 200 QW >3 mg/kg): 4 (28.6%)
- TEAE Nausea Grade 2, subjects (Cohort 3, 200 QW >3 mg/kg): 1 (7.1%)
- TEAE Nausea Grade 3, subjects (Cohort 3, 200 QW >3 mg/kg): 0
- TEAE Nausea Grade 4, subjects (Cohort 3, 200 QW >3 mg/kg): 0
- TEAE Nausea Grade 5, subjects (Cohort 3, 200 QW >3 mg/kg): 0
- TEAE Nausea Overall Frequency, subjects (Cohort 3, 200 QW >3 mg/kg): 3 (21.4%)
- TEAE Vomiting Grade 2, subjects (Cohort 3, 200 QW >3 mg/kg): 0
- TEAE Vomiting Grade 3, subjects (Cohort 3, 200 QW >3 mg/kg): 0
- TEAE Vomiting Grade 4, subjects (Cohort 3, 200 QW >3 mg/kg): 0
- TEAE Vomiting Grade 5, subjects (Cohort 3, 200 QW >3 mg/kg): 0
- TEAE Vomiting Overall Frequency, subjects (Cohort 3, 200 QW >3 mg/kg): 2 (14.3%)
- TEAE Abdominal pain Grade 2, subjects (Cohort 3, 200 QW ≦3 mg/kg): 1 (4.0%)
- TEAE Abdominal pain Grade 3, subjects (Cohort 3, 200 QW ≦3 mg/kg): 0
- TEAE Abdominal pain Grade 4, subjects (Cohort 3, 200 QW ≦3 mg/kg): 0
- TEAE Abdominal pain Grade 5, subjects (Cohort 3, 200 QW ≦3 mg/kg): 0
- TEAE Abdominal pain Overall Frequency, subjects (Cohort 3, 200 QW ≦3 mg/kg): 3 (12%)
- TEAE Diarrhea Grade 2, subjects (Cohort 3, 200 QW ≦3 mg/kg): 1 (4.0%)
- TEAE Diarrhea Grade 3, subjects (Cohort 3, 200 QW ≦3 mg/kg): 1 (4.0%)
- TEAE Diarrhea Grade 4, subjects (Cohort 3, 200 QW ≦3 mg/kg): 0
- TEAE Diarrhea Grade 5, subjects (Cohort 3, 200 QW ≦3 mg/kg): 0
- TEAE Diarrhea Overall Frequency, subjects (Cohort 3, 200 QW ≦3 mg/kg): 5 (20%)
- TEAE Hypokalaemia Grade 2, subjects (Cohort 3, 200 QW ≦3 mg/kg): 1 (4.0%)
- TEAE Hypokalaemia Grade 3, subjects (Cohort 3, 200 QW ≦3 mg/kg): 0
- TEAE Hypokalaemia Grade 4, subjects (Cohort 3, 200 QW ≦3 mg/kg): 0
- TEAE Hypokalaemia Grade 5, subjects (Cohort 3, 200 QW ≦3 mg/kg): 0
- TEAE Hypokalaemia, subjects (Cohort 3, 200 QW ≦3 mg/kg): 1 (4.0%)
- TEAE Nausea Grade 2, subjects (Cohort 3, 200 QW ≦3 mg/kg): 3 (12%)
- TEAE Nausea Grade 3, subjects (Cohort 3, 200 QW ≦3 mg/kg): 1 (4.0%)
- TEAE Nausea Grade 4, subjects (Cohort 3, 200 QW ≦3 mg/kg): 0
- TEAE Nausea Grade 5, subjects (Cohort 3, 200 QW ≦3 mg/kg): 0
- TEAE Nausea Overall Frequency, subjects (Cohort 3, 200 QW ≦3 mg/kg): 8 (32%)
- TEAE Vomiting Grade 2, subjects (Cohort 3, 200 QW ≦3 mg/kg): 1 (4.0%)
- TEAE Vomiting Grade 3, subjects (Cohort 3, 200 QW ≦3 mg/kg): 1 (4.0%)
- TEAE Vomiting Grade 4, subjects (Cohort 3, 200 QW ≦3 mg/kg): 0
- TEAE Vomiting Grade 5, subjects (Cohort 3, 200 QW ≦3 mg/kg): 0
- TEAE Vomiting Overall Frequency, subjects (Cohort 3, 200 QW ≦3 mg/kg): 4 (16%)
- Abnormal ALT >3-5x ULN, Any Time Between Week 2 and Week 10, subjects (Cohort 3, >3.0 mg/kg/wk): 1 (7.1%)
